# Data published in patent US20140213538A1, “LYSOPHOSPHATIDIC ACID RECEPTOR ANTAGONISTS” (InterMune, Inc., priority 2013, published 2014).
# Legend:
# Type in all cases: cell-based
# LPA1 [1] = target: T1, LPA1 (Homo sapiens, UniProt Q92633); assay: LPA1 Migration Assay (Oris); set-up: host or cells: primary fibroblasts (lung, dermal), HFL-1, 3T3 and CHO cells expressing LPA1R; settings: read-out: Cell Migration EC50
# In short: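 Antagonist inhibition was derived by 4-parameter logistic fitting of migrated-cell counts against compound concentration. Dye-loaded, 12-24 h serum-starved fibroblasts, HFL-1, 3T3 or CHO cells expressing LPA1R moved into an Oris detection zone in response to LPA or serum, then were fixed and counted on a high-content reader.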
# LPA1 [2] = target: T1, LPA1; assay: Ca Flux LPA1 assay; set-up: the full-length cDNA for human LPA1 is obtained by PCR of the reverse transcription reaction; expressed in transfected cells
# LPA/S1P GPCR of interest = target: T2, LPA/S1P GPCR of interest (Homo sapiens, UniProt Q92633); assay: Beta-Arrestin based assay (PathHunter)
# T2 construct: host or cells: CHO
# T2 sequence (Q92633 whole entry): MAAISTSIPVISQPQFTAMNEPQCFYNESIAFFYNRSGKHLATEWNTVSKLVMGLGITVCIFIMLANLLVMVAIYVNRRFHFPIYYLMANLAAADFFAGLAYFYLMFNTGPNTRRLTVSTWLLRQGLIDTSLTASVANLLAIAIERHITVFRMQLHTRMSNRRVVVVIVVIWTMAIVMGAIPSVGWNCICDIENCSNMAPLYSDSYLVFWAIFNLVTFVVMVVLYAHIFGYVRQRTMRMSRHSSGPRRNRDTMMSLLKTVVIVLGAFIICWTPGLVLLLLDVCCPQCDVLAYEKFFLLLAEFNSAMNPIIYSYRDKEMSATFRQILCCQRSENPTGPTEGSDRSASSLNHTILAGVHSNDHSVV
# In short: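 EA Parental CHO cells (DiscoverX) were transfected with FuGENE (Roche) using CMV promoter-driven DNA constructs encoding the LPA/S1P GPCR of interest fused to a ProLink tag. Beta-arrestin recruitment in agonist mode was assessed 24-48 hrs later with PathHunter kits. Tests ran in quadruplicate in white 384 well plates, and end point luminescence was fit to a 4 parameter logistic function.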
# T1 sequence (Q92633 whole entry): as above
EC50 (LPA1 [1]) [nM],IC50 (LPA1 [2]) [nM],EC50 (LPA/S1P GPCR of interest) [nM],SMILES
< 50,50 to 500,< 50,C[C@@H](OC(=O)Nc1c(-c2ccc(-c3cc(F)c(Oc4ncccc4C(=O)O)c(F)c3)cc2)cnn1C)c1ccccc1 [IT308]
50 to 500,< 50,< 50,C[C@@H](OC(=O)Nc1c(-c2ccc(-c3ccc(C4(C(=O)O)CC4)c4c3CCC4)cc2)cnn1C)c1ccccc1 [IT112]
> 500,> 500,> 500,C[C@@H](OC(=O)Nc1sncc1C#Cc1cc2sc(C3(C(=O)O)CC3)cc2s1)c1ccccc1 [IT108]
50 to 500,> 500,< 50,Cc1nsc(-c2cc3sc(-c4ccc(C5(C(=O)O)CC5)cc4)cc3s2)c1NC(=O)O[C@H](C)c1ccccc1 [IT120]
< 50,50 to 500,< 50,Cc1noc(-c2ccc(-c3ccc(Oc4ccccc4C(=O)O)cc3)cc2)c1NC(=O)O[C@H](C)c1ccccc1 [IT155]
< 50,< 50,< 50,Cc1noc(-c2ccc(-c3cc(F)c(C4(C(=O)O)CC4)c(F)c3)cc2)c1NC(=O)O[C@H](C)c1ccccc1 [IT234]
50 to 500,< 50,< 50,Cc1nnn(-c2ccc(-c3cc(F)c(Oc4ncccc4C(=O)O)c(F)c3)cc2)c1NC(=O)O[C@H](C)c1ccccc1 [IT307]
< 50,< 50,< 50,C[C@@H](OC(=O)Nc1c(-c2ccc(-c3cc(F)c(Oc4ncccc4C(=O)O)c(F)c3)cc2)nnn1C)c1ccccc1 [IT306]
50 to 500,< 50,< 50,C[C@@H](OC(=O)Nc1c(C#Cc2cc3sc(C4(c5nn[nH]n5)CC4)cc3s2)cnn1C)c1ccccc1 [IT104]
< 50,50 to 500,< 50,Cn1ncc(C#Cc2cc3sc(C4(C(=O)O)CC4)cc3s2)c1NC(=O)O[C@@H](c1ccccc1)C(F)(F)F [IT114]
< 50,> 500,< 50,Cc1noc(-c2ccc(-c3cc(F)c(Oc4nc5ccccc5cc4C(=O)O)c(F)c3)cc2)c1NC(=O)O[C@H](C)c1ccccc1 [IT481]
< 50,< 50,< 50,Cc1noc(-c2ccc(-c3cc(F)c(Oc4cccnc4C(=O)O)c(F)c3)cc2)c1NC(=O)O[C@H](C)c1ccccc1 [IT435]
50 to 500,50 to 500,< 50,Cc1noc(-c2ccc(-c3ccc(C(F)(F)C(=O)O)cc3)cc2)c1NC(=O)O[C@H](C)c1ccccc1 [IT123]
> 500,> 500,> 500,Cc1nnn(-c2cc(F)c(-c3ccc(C4(C(=O)O)CCOCC4)cc3)cc2F)c1NC(=O)O[C@H](C)c1ccccc1 [IT030]
< 50,50 to 500,< 50,Cc1noc(-c2ccc(-c3cc(F)c(Oc4ccccc4C(=O)O)c(F)c3)cc2)c1NC(=O)O[C@H](C)c1ccccc1 [IT316]
< 50,> 500,< 50,Cc1noc(-c2ccc(-c3cc(F)c(Oc4ccccc4C(=O)O)c(F)c3)cc2)c1NC(=O)O[C@H](C)c1ccccc1Cl [IT449]
50 to 500,50 to 500,< 50,Cc1noc(-c2ccc(-c3nc4sc(C5(C(=O)O)CC5)cc4s3)cc2)c1NC(=O)O[C@H](C)c1ccccc1 [IT111]
< 50,< 50,< 50,Cc1noc(-c2ccc(-c3cc(F)c(Oc4ccncc4C(=O)O)c(F)c3)cc2)c1NC(=O)O[C@H](C)c1ccccc1 [IT300]
50 to 500,< 50,> 500,C[C@@H](OC(=O)Nc1ocnc1C#Cc1cc2sc(C3(C(=O)O)CC3)cc2s1)c1ccccc1 [IT125]

# More lines, now with the values behind:
SMILES,EC50 (LPA1 [1]) [nM],IC50 (LPA1 [2]) [nM],EC50 (LPA/S1P GPCR of interest) [nM]
Cc1noc(-c2ccc(-c3ccc(Oc4c(C(=O)O)nn(C)c4C)cc3)cc2)c1NC(=O)O[C@H](C)c1ccccc1 [IT484],50 to 500,< 50,< 50
Cc1noc(-c2ccc(-c3ccc(Oc4c(F)cccc4C(=O)O)cc3)cc2)c1NC(=O)O[C@H](C)c1ccccc1 [IT375],50 to 500,50 to 500,< 50
Cc1noc(-c2ccc(-c3ccc(Oc4cccnc4C(=O)O)c(F)c3)cc2)c1NC(=O)O[C@H](C)c1ccccc1 [IT424],< 50,< 50,< 50
C[C@@H](OC(=O)Nc1c(-c2ccc(-c3cc(F)c(Oc4ccncc4C(=O)O)c(F)c3)cc2)cnn1C)c1ccccc1 [IT438],50 to 500,50 to 500,< 50
Cc1noc(-c2ccc(-c3cc(F)c(OC4(C(=O)O)CC4)c(F)c3)cc2)c1NC(=O)O[C@H](C)c1ccccc1 [IT304],50 to 500,< 50,< 50
C[C@@H](OC(=O)Nc1c(C#Cc2ccc(Oc3ccccc3C(=O)O)cc2)cnn1C)c1ccccc1 [IT301],50 to 500,< 50,< 50
C[C@@H](OC(=O)Nc1c(-c2cc3sc(-c4cc(F)c(C5(C(=O)O)CC5)c(F)c4)cc3s2)cnn1C)c1ccccc1 [IT261],50 to 500,> 500,< 50
Cc1noc(-c2ccc(-c3ccc(Oc4c(C)nn(C)c4C(=O)O)cc3)cc2)c1NC(=O)O[C@H](C)c1ccccc1 [IT483],50 to 500,50 to 500,< 50
C[C@@H](OC(=O)Nc1c(-c2ccc(-c3cc(F)c(Oc4cccnc4C(=O)O)c(F)c3)cc2)nnn1C)c1ccccc1 [IT452],< 50,< 50,< 50
C[C@@H](OC(=O)Nc1c(-c2ccc(-c3ccc(Oc4ccccc4C(=O)O)cc3)cc2)cnn1C)c1ccccc1 [IT198],50 to 500,< 50,< 50
C[C@@H](OC(=O)Nc1c(-c2ccc(-c3cc(F)c(Oc4ccccc4C(=O)O)c(F)c3)cc2)cnn1C)c1ccccc1 [IT425],< 50,< 50,< 50
Cc1noc(-c2ccc(-c3ccc(C4(C(=O)O)CCC4)cc3)cc2)c1NC(=O)O[C@H](C)c1ccccc1 [IT235],< 50,50 to 500,< 50
Cc1cc(C2(C(=O)O)CC2)c(F)cc1-c1cc2sc(-c3nnn(C)c3NC(=O)O[C@H](C)c3ccccc3)cc2s1 [IT341],50 to 500,50 to 500,< 50
Cc1c(C2(C(=O)O)CC2)sc2cc(C#Cc3cnn(C)c3NC(=O)O[C@H](C)c3ccccc3)sc12 [IT107],50 to 500,< 50,< 50
C[C@@H](OC(=O)Nc1c(-c2ccc(-c3ccc(C4(C(=O)OC5OC(C(=O)O)C(O)C(O)C5O)CC4)cc3)cc2)cnn1C)c1ccccc1 (stereo partly drawn) [IT105],50 to 500,50 to 500,50 to 500
Cc1noc(-c2ccc(-c3ccc(Oc4ccccc4C(=O)O)nc3)cc2)c1NC(=O)O[C@H](C)c1ccccc1 [IT345],50 to 500,< 50,< 50
C[C@@H](OC(=O)Nc1c(-c2ccc(-c3ccc(Oc4ccccc4C(=O)O)c(F)c3)cc2)nnn1C)c1ccccc1 [IT447],< 50,< 50,< 50
Cc1noc(-c2ccc(NC(=O)c3coc(C4(C(=O)O)CC4)c3)cc2)c1NC(=O)O[C@H](C)c1ccccc1 [IT224],< 50,< 50,< 50
Cc1noc(-c2ccc(-c3cc(F)c(Oc4ncccc4C(=O)O)c(F)c3)cc2)c1NC(=O)O[C@H](C)c1ccccc1 [IT258],< 50,< 50,< 50
Cc1noc(-c2ccc(-c3ccc(C4(C(=O)O)CC(F)(F)C4)cc3)cc2)c1NC(=O)O[C@H](C)c1ccccc1 [IT136],50 to 500,50 to 500,< 50
"CCC(C)OC(=O)Nc1c(C)noc1-c1ccc(-c2ccc(Oc3ccccc3C(=O)O)cc2)cc1 (single isomer, unassigned) [IT494]",50 to 500,< 50,< 50
Cc1onc(-c2cc(F)c(-c3cc4sc(C5(C(=O)O)CC5)cc4s3)cc2F)c1NC(=O)O[C@H](C)c1ccccc1 [IT255],50 to 500,50 to 500,< 50
Cc1noc(-c2ccc(-c3cc(F)c(Oc4nccnc4C(=O)O)c(F)c3)cc2)c1NC(=O)O[C@H](C)c1ccccc1 [IT305],< 50,< 50,< 50
C[C@@H](OC(=O)Nc1c(-c2cc(F)c(-c3cc4sc(C5(C(=O)O)CC5)cc4s3)cc2F)cnn1C)c1ccccc1 [IT121],< 50,> 500,< 50
C[C@@H](OC(=O)Nc1c(-c2cc3sc(C#CC4(C(=O)O)CC4)cc3s2)cnn1C)c1ccccc1 [IT126],50 to 500,< 50,< 50
Cc1noc(-c2cc(F)c(-c3ccc(Oc4ccccc4C(=O)O)cc3)cc2F)c1NC(=O)O[C@H](C)c1ccccc1 [IT315],< 50,< 50,< 50
Cc1noc(-c2ccc(-c3ccc(OC4(C(=O)O)CC4)cc3)cc2)c1NC(=O)O[C@H](C)c1ccccc1 [IT197],< 50,< 50,< 50
Cc1noc(-c2ccc(-c3ccc(Oc4cccnc4C(=O)O)cc3)cc2)c1NC(=O)O[C@H](C)c1ccccc1 [IT229],50 to 500,50 to 500,< 50
